{"source": "paper PMC11390765", "about": "(Cancer Chemotherapy and Pharmacology, 2024)", "key": {"[1]": {"assay": "Plasma pharmacokinetics of capivasertib and its glucuronide metabolite", "format": "in vivo, human"}, "CYP": {"tested_on": "CYP", "design": "method as in unpublished data", "conditions": "ref unpublished data; cited from earlier work"}, "[2]": {"assay": "Safety and tolerability (adverse events, CTCAE v5.0; full analysis set)", "format": "in vivo, human", "conditions": "period 1, day 1 cycle 1, midazolam only 1 mg, N=21", "method": "Safety and tolerability were evaluated in terms of AEs, which were classified and graded according to the National Cancer Institute (NCI) Common Terminology Criteria for Adverse Events (CTCAE) v5.0; vital signs; 12-lead electrocardiogram (ECG); and clinical laboratory assessments, including clinical chemistry and hematology parameters, urinalysis, HbA1c levels, and lipid profiles.\nEfficacy analyses were also performed on the full analysis set. Summary and/or descriptive statistics were used to analyze baseline demographic, safety, and efficacy data; PFS and DoR were estimated using Kaplan–Meier methodology."}, "[3]": {"assay": "Midazolam plasma pharmacokinetics with or without capivasertib (part A)", "conditions": "for AUC(0-inf): AUCinf; for tmax: median (range); for half-life: t½λz"}, "[4]": {"conditions": "human, plasma, oral, geometric mean (gCV%), day 8 of cycle 1, midazolam 1 mg on 3rd day off capivasertib 400 mg BID, N = 16"}, "[5]": {"conditions": "human, plasma, oral, geometric mean (gCV%), day 12 of cycle 1, midazolam 1 mg on 4th day on capivasertib 400 mg BID, N = 15"}, "[6]": {"conditions": "human, plasma, po, 1 mg, geometric mean (gCV%), day 1 of cycle 1, midazolam alone, single oral 1 mg, N = 18"}}, "note": "Where “and” joins values, the source holds several entries; their conditions need not be identical. Equal entries are not always repeated. Marks after values point to notes of the source that are not given here."}
{"smiles": "NC1(C(=O)N[C@@H](CCO[C@@H]2O[C@H](C(=O)O)[C@@H](O)[C@H](O)[C@H]2O)c2ccc(Cl)cc2)CCN(c2ncnc3[nH]ccc23)CC1", "note": "[AZ14102143]", "values": [{"measurement": "AUCτ", "setting": "[1]; geometric mean (gCV%), 12-h dosing interval, day 12 of cycle 1, capivasertib 400 mg BID", "value": "68,810 h*ng/mL"}, {"measurement": "Ctrough cycle 1, day 13", "setting": "[1]; geometric mean (gCV%), 12 h post day 12 capivasertib evening dose", "value": "2575 ng/mL and 2575^f (106.9) ng/mL"}, {"measurement": "Ctrough cycle 1, day 9", "setting": "[1]; geometric mean (gCV%), after 3 off-capivasertib-dosing days", "value": "45.22 ng/mL and 45.22^e (242.1) ng/mL"}, {"measurement": "Cmax", "setting": "[1]; geometric mean (gCV%), day 12 of cycle 1, 4th day on capivasertib 400 mg BID, with single oral midazolam 1 mg", "value": "11,220 ng/mL"}, {"measurement": "t½λz", "setting": "[1]; geometric mean (gCV%), day 12 of cycle 1, capivasertib 400 mg BID", "value": 3.40, "unit": "h"}, {"measurement": "tmax", "setting": "[1]; median (range), day 12 of cycle 1, capivasertib 400 mg BID", "value": "2.03^a (0.6–7.6) h"}, {"measurement": "CYP inhibition in vitro", "setting": "CYP", "value": "little or no CYP inhibition"}]}
{"smiles": "Cc1ncc2n1-c1ccc(Cl)cc1C(c1ccccc1F)=NC2", "note": "[midazolam, reference compound]", "values": [{"measurement": "Abdominal pain, any grade", "setting": "[2]", "value": "0 n (%)"}, {"measurement": "Abdominal pain, grade ≥ 3", "setting": "[2]", "value": "0 n (%)"}, {"measurement": "Anemia, any grade", "setting": "[2]", "value": "0 n (%)"}, {"measurement": "Anemia, grade ≥ 3", "setting": "[2]", "value": "0 n (%)"}, {"measurement": "Any AE, any grade", "setting": "[2]", "value": "3 (14.3) n (%)"}, {"measurement": "Any AE, grade ≥ 3", "setting": "[2]", "value": "0 n (%)"}, {"measurement": "Asthenia, any grade", "setting": "[2]", "value": "0 n (%)"}, {"measurement": "Asthenia, grade ≥ 3", "setting": "[2]", "value": "0 n (%)"}, {"measurement": "Blood alkaline phosphatase increased, any grade", "setting": "[2]", "value": "0 n (%)"}, {"measurement": "Blood alkaline phosphatase increased, grade ≥ 3", "setting": "[2]", "value": "0 n (%)"}, {"measurement": "Blood bilirubin increased, any grade", "setting": "[2]", "value": "0 n (%)"}, {"measurement": "Blood bilirubin increased, grade ≥ 3", "setting": "[2]", "value": "0 n (%)"}, {"measurement": "Blood creatinine increased, any grade", "setting": "[2]", "value": "0 n (%)"}, {"measurement": "Blood creatinine increased, grade ≥ 3", "setting": "[2]", "value": "0 n (%)"}, {"measurement": "COVID-19, any grade", "setting": "[2]", "value": "0 n (%)"}, {"measurement": "COVID-19, grade ≥ 3", "setting": "[2]", "value": "0 n (%)"}, {"measurement": "Decreased appetite, any grade", "setting": "[2]", "value": "0 n (%)"}, {"measurement": "Decreased appetite, grade ≥ 3", "setting": "[2]", "value": "0 n (%)"}, {"measurement": "Diarrhea, any grade", "setting": "[2]", "value": "0 n (%)"}, {"measurement": "Diarrhea, grade ≥ 3", "setting": "[2]", "value": "0 n (%)"}, {"measurement": "Fatigue, any grade", "setting": "[2]", "value": "0 n (%)"}, {"measurement": "Fatigue, grade ≥ 3", "setting": "[2]", "value": "0 n (%)"}, {"measurement": "Gamma-glutamyl transferase increased, any grade", "setting": "[2]", "value": "0 n (%)"}, {"measurement": "Gamma-glutamyl transferase increased, grade ≥ 3", "setting": "[2]", "value": "0 n (%)"}, {"measurement": "Hyperglycemia, any grade", "setting": "[2]", "value": "1 (4.8) n (%)"}, {"measurement": "Hyperglycemia, grade ≥ 3", "setting": "[2]", "value": "0 n (%)"}, {"measurement": "Hypoalbuminemia, any grade", "setting": "[2]", "value": "0 n (%)"}, {"measurement": "Hypoalbuminemia, grade ≥ 3", "setting": "[2]", "value": "0 n (%)"}, {"measurement": "Hypokalemia, any grade", "setting": "[2]", "value": "0 n (%)"}, {"measurement": "Hypokalemia, grade ≥ 3", "setting": "[2]", "value": "0 n (%)"}, {"measurement": "Hyponatremia, any grade", "setting": "[2]", "value": "0 n (%)"}, {"measurement": "Hyponatremia, grade ≥ 3", "setting": "[2]", "value": "0 n (%)"}, {"measurement": "Hypotension, any grade", "setting": "[2]", "value": "0 n (%)"}, {"measurement": "Hypotension, grade ≥ 3", "setting": "[2]", "value": "0 n (%)"}, {"measurement": "Large intestinal obstruction, any grade", "setting": "[2]", "value": "0 n (%)"}, {"measurement": "Large intestinal obstruction, grade ≥ 3", "setting": "[2]", "value": "0 n (%)"}, {"measurement": "Lymphocyte count decreased, any grade", "setting": "[2]", "value": "0 n (%)"}, {"measurement": "Lymphocyte count decreased, grade ≥ 3", "setting": "[2]", "value": "0 n (%)"}, {"measurement": "Nausea, any grade", "setting": "[2]", "value": "0 n (%)"}, {"measurement": "Nausea, grade ≥ 3", "setting": "[2]", "value": "0 n (%)"}, {"measurement": "Rash (group term), any grade", "setting": "[2]", "value": "0 n (%)"}, {"measurement": "Rash (group term), grade ≥ 3", "setting": "[2]", "value": "0 n (%)"}, {"measurement": "Sepsis, any grade", "setting": "[2]", "value": "0 n (%)"}, {"measurement": "Sepsis, grade ≥ 3", "setting": "[2]", "value": "0 n (%)"}, {"measurement": "Thrombocytopenia, any grade", "setting": "[2]", "value": "0 n (%)"}, {"measurement": "Thrombocytopenia, grade ≥ 3", "setting": "[2]", "value": "0 n (%)"}, {"measurement": "Ureteric obstruction, any grade", "setting": "[2]", "value": "0 n (%)"}, {"measurement": "Ureteric obstruction, grade ≥ 3", "setting": "[2]", "value": "0 n (%)"}, {"measurement": "Urticaria, any grade", "setting": "[2]", "value": "0 n (%)"}, {"measurement": "Urticaria, grade ≥ 3", "setting": "[2]", "value": "0 n (%)"}, {"measurement": "Cmax", "setting": "[3]; geometric mean (gCV%), day 1 of cycle 1, midazolam alone, single oral 1 mg, N = 18", "value": "8.55^a (39.6) ng/mL"}, {"measurement": "AUClast", "setting": "[3]; geometric mean (gCV%), day 8 of cycle 1, midazolam 1 mg on 3rd day off capivasertib 400 mg BID, N = 16", "value": "24.49^b (45.3) h*ng/mL"}, {"measurement": "AUC(0-inf)", "setting": "[3]; [4]", "value": 28.3, "unit": "ng·h/mL"}, {"measurement": "AUC(0-inf)", "setting": "[3]; [5]", "value": 39.5, "unit": "ng·h/mL"}, {"measurement": "Cmax", "setting": "[3]; human, plasma, oral, Cmax, geometric mean (gCV%), day 8 of cycle 1, midazolam 1 mg on 3rd day off capivasertib 400 mg BID, N = 16", "value": 9.9, "unit": "ng/mL"}, {"measurement": "Cmax", "setting": "[3]; human, plasma, oral, Cmax, geometric mean (gCV%), day 12 of cycle 1, midazolam 1 mg on 4th day on capivasertib 400 mg BID, N = 15", "value": 9.83, "unit": "ng/mL"}, {"measurement": "tmax", "setting": "[3]; human, plasma, oral, day 8 of cycle 1, midazolam 1 mg on 3rd day off capivasertib 400 mg BID, N = 16", "value": "~0.5", "unit": "h"}, {"measurement": "tmax", "setting": "[3]; human, plasma, oral, day 12 of cycle 1, midazolam 1 mg on 4th day on capivasertib 400 mg BID, N = 15", "value": "~0.5", "unit": "h"}, {"measurement": "half-life", "setting": "[3]; [4]", "value": 8.52, "unit": "h"}, {"measurement": "half-life", "setting": "[3]; [5]", "value": 7.23, "unit": "h"}, {"measurement": "AUC(0-t)", "setting": "[3]; human, plasma, po, 1 mg", "value": 22.4, "unit": "ng·h/mL"}, {"measurement": "AUC(0-inf)", "setting": "[3]; [6]", "value": 25, "unit": "ng·h/mL"}, {"measurement": "tmax", "setting": "[3]; human, plasma, po, 1 mg, day 1 of cycle 1, midazolam alone, single oral 1 mg, N = 18", "value": "~0.5", "unit": "h"}, {"measurement": "half-life", "setting": "[3]; [6]", "value": 7.24, "unit": "h"}]}
